Data as given in patent publication US11566007B2, “Ras inhibitors” (Revolution Medicines, Inc., priority 2019, dated 2023).
“And” between values parts separate entries of the source, which are not always exact repeats. Equal entries are not always repeated. Where two headings read alike, the source gives them in different places.

How the values were obtained:
[1] = molecular target: KRAS Q61H (Homo sapiens (Human), UniProt P01116+P62937, Q61H); experiment: Ras-Raf (BRAF RBD) disruption / FRET / MOA assay, KRAS Q61H; type: biochemical; conditions: Ras-Raf disruption/FRET/MOA assay; class symbols; read-out: KRAS Q61H FRET data IC50
KRAS Q61H, sequence (P01116-2 other isoform, or with tags, fused parts or gaps Q61H): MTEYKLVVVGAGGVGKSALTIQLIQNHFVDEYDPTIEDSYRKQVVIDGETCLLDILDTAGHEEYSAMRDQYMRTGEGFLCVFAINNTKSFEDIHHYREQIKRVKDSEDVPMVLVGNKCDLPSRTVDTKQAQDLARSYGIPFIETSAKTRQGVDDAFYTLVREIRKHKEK
KRAS Q61H, sequence (P62937 whole entry): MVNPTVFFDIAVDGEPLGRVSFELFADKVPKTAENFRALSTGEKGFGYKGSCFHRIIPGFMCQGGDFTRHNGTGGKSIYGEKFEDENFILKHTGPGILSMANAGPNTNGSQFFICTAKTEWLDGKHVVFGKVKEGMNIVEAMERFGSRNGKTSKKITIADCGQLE
How it was run: (§1)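 Compounds (30 μM top final, 10-point 3-fold dilutions) incubated 3 h at 25° C with nucleotide-loaded Ras, cyclophilin A and BRAF RBD. Detection with 10 nM anti-His Eu-W1024 and 50 nM anti-GST allophycocyanin over another 1.5 h. Lowered TR-FRET ratio relative to DMSO wells gives IC50.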

[2] = molecular target: NRAS Q61R (Homo sapiens (Human), UniProt P01111+P62937, Q61R); experiment: Ras-Raf (BRAF RBD) disruption / FRET / MOA assay, NRAS Q61R; type: biochemical; conditions: NRAS Q61R; Ras-Raf disruption/FRET/MOA assay; read-out: IC50* NRAS Q61R FRET data
NRAS Q61R, sequence (P01111 whole entry Q61R): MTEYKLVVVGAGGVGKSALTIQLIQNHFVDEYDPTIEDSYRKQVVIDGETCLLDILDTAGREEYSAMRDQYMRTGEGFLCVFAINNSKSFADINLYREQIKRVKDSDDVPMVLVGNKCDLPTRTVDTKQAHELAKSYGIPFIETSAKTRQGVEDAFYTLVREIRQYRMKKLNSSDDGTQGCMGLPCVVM
NRAS Q61R, sequence (P62937 whole entry): as the sequence (P62937 whole entry) above
How it was run: as §1

[3] = molecular target: NRAS WT (Homo sapiens (Human), UniProt P01111+P62937); experiment: Ras-Raf (BRAF RBD) disruption / FRET / MOA assay, NRAS WT; type: biochemical; conditions: read-out: IC50* NRAS WT FRET data
NRAS WT, sequence (P01111 whole entry): as the sequence (P01111 whole entry Q61R) above, with R61Q counted along it
NRAS WT, sequence (P62937 whole entry): as the sequence (P62937 whole entry) above
How it was run: as §1

[4] = system: NCI-H358 (K-Ras G12C); experiment: CellTiter-Glo cell viability assay, NCI-H358; type: cell-based, human; conditions: NCI-H358, 5-day treatment, class symbols, read-out: Additional H358 Cell Viability assay data (K-Ras G12C, IC50)
How it was run: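 Viability of K-Ras mutant lines is measured by ATP luminescence after five days of compound treatment. Percent of DMSO control is calculated and dose-response data are fitted with a four-parameter logistic equation.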

[5] = molecular target: K-Ras G13C (Homo sapiens (Human), UniProt P01116+P62937, G13C); experiment: Ras-Raf (BRAF RBD) disruption / FRET / MOA assay, KRAS G13C; type: biochemical; conditions: KRAS G13C; Ras-Raf disruption/FRET/MOA assay; read-out: IC50* KRAS G13C FRET data
K-Ras G13C, sequence (P01116-2 other isoform, or with tags, fused parts or gaps G13C): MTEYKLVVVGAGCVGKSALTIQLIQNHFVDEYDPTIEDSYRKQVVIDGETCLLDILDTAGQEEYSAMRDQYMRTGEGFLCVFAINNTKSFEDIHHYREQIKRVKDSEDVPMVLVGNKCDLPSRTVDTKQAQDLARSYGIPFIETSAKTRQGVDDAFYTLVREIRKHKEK
K-Ras G13C, sequence (P62937 whole entry): as the sequence (P62937 whole entry) above
How it was run: (§2)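 Compound-driven ternary complex of nucleotide-loaded Ras with cyclophilin A, disrupting BRAF RBD binding. 10-point 3-fold dilution from 30 μM final, 3 h at 25° C, then anti-His Eu-W1024 (10 nM) and anti-GST allophycocyanin (50 nM) for 1.5 h. IC50 from TR-FRET ratio decrease versus DMSO.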

[6] = molecular target: KRAS G12S (Homo sapiens (Human), UniProt P01116+P62937, G12S); experiment: Ras-Raf (BRAF RBD) disruption / FRET / MOA assay, KRAS G12S; type: biochemical; conditions: Ras-Raf disruption/FRET/MOA assay; class symbols; read-out: KRAS G12S FRET data IC50
KRAS G12S, sequence (P01116-2 other isoform, or with tags, fused parts or gaps G12S): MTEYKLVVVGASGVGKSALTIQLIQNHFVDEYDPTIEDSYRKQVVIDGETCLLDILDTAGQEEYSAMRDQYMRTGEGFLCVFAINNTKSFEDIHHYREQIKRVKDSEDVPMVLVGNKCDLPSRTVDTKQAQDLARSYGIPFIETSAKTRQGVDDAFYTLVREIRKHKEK
KRAS G12S, sequence (P62937 whole entry): as the sequence (P62937 whole entry) above
How it was run: as §2

[7] = molecular target: K-Ras G12C (Homo sapiens (Human), UniProt P01116+P62937, G12C); experiment: Ras-Raf (BRAF RBD) disruption / FRET / MOA assay, KRAS G12C; type: biochemical; conditions: KRAS G12C; Ras-Raf disruption/FRET/MOA assay; read-out: IC50* KRAS G12C FRET data
K-Ras G12C, sequence (P01116-2 other isoform, or with tags, fused parts or gaps G12C): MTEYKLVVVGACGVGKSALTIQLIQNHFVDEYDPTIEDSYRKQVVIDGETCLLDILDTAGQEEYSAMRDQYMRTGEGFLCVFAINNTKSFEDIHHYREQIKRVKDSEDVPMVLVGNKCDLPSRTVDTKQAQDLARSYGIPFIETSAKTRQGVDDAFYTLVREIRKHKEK
K-Ras G12C, sequence (P62937 whole entry): as the sequence (P62937 whole entry) above
How it was run: as §2

[8] = molecular target: NRAS G12C (Homo sapiens (Human), UniProt P01111+P62937, G12C); experiment: Ras-Raf (BRAF RBD) disruption / FRET / MOA assay, NRAS G12C; type: biochemical; conditions: read-out: IC50* NRAS G12C FRET data
NRAS G12C, sequence (P01111 whole entry G12C): as the sequence (P01111 whole entry Q61R) above, with G12C, R61Q counted along it
NRAS G12C, sequence (P62937 whole entry): as the sequence (P62937 whole entry) above
How it was run: as §2

[9] = molecular target: KRAS G13D (Homo sapiens (Human), UniProt P01116+P62937, G13D); experiment: Ras-Raf (BRAF RBD) disruption / FRET / MOA assay, KRAS G13D; type: biochemical; conditions: read-out: IC50* KRAS G13D FRET data
KRAS G13D, sequence (P01116-2 other isoform, or with tags, fused parts or gaps G13D): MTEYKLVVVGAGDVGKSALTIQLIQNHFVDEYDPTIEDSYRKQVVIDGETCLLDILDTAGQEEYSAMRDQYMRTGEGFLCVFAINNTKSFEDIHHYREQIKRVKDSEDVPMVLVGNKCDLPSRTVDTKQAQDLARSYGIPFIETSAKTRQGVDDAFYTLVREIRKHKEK
KRAS G13D, sequence (P62937 whole entry): as the sequence (P62937 whole entry) above
How it was run: as §2

[10] = molecular target: KRAS G12D (Homo sapiens (Human), UniProt P01116+P62937, G12D); experiment: Ras-Raf (BRAF RBD) disruption / FRET / MOA assay, KRAS G12D; type: biochemical; conditions: Ras-Raf disruption/FRET/MOA assay; class symbols; read-out: KRAS G12D FRET data IC50
KRAS G12D, sequence (P01116-2 other isoform, or with tags, fused parts or gaps G12D): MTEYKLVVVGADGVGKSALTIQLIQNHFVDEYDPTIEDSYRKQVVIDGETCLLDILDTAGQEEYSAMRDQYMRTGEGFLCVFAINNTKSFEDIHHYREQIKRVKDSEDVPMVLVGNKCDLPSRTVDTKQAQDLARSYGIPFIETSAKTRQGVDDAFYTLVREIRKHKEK
KRAS G12D, sequence (P62937 whole entry): as the sequence (P62937 whole entry) above
How it was run: as §2

[11] = molecular target: KRAS WT (Homo sapiens (Human), UniProt P01116+P62937); experiment: Ras-Raf (BRAF RBD) disruption / FRET / MOA assay, KRAS WT; type: biochemical; conditions: read-out: IC50* KRAS WT FRET data
KRAS WT, sequence (P01116-2 other isoform, or with tags, fused parts or gaps): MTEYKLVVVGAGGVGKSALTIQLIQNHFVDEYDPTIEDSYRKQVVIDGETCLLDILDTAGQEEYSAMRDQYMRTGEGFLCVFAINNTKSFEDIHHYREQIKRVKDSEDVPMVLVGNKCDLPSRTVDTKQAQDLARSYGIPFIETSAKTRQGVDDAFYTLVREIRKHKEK
KRAS WT, sequence (P62937 whole entry): as the sequence (P62937 whole entry) above
How it was run: as §2

[12] = molecular target: NRAS Q61K (Homo sapiens (Human), UniProt P01111+P62937, Q61K); experiment: Ras-Raf (BRAF RBD) disruption / FRET / MOA assay, NRAS Q61K; type: biochemical; conditions: NRAS Q61K; Ras-Raf disruption/FRET/MOA assay; read-out: IC50* NRAS Q61K FRET data
NRAS Q61K, sequence (P01111 whole entry Q61K): as the sequence (P01111 whole entry Q61R) above, with R61K counted along it
NRAS Q61K, sequence (P62937 whole entry): as the sequence (P62937 whole entry) above
How it was run: as §1

Row | SMILES | IC50 [1] [nM] | IC50 [2] [nM] | IC50 [3] [nM] | IC50 ([4]; Homo sapiens, NCI-H358, 120 h) [nM] | IC50 [5] | IC50 [6] | IC50 [7] | IC50 [8] | IC50 [9] | IC50 [10] | IC50 [11] | IC50 [12] [nM] | IC50 [4] [nM]
1 | C=CC(=O)N1CC[C@H](C(=O)N(C)[C@H](C(=O)N[C@H]2Cc3cc(O)cc(c3)-c3ccc4c(c3)c(c(-c3cccnc3[C@H](CC)OC)n4CC)CC(C)(C)COC(=O)[C@@H]3CCCN(N3)C2=O)C(C)C)C1 (atropisomer, axis not shown) [Example A181] | 10 to 100 | 100 to 1000 | 100 to 1000 | 10 to 100 | 100 to 1000 nM and 1000 to 10000 nM | 1000 to 10000 nM and 10 to 100 nM | 10 to 100 nM and 100 to 1000 nM | 10 to 100 nM and 100 to 1000 nM | 100 to 1000 nM and 1000 to 10000 nM | 1000 to 10000 nM and > 10000 nM | 100 to 1000 nM and 1000 to 10000 nM | 100 to 1000 | 
2 | C=CC(=O)N1CC[C@H](C(=O)N(C)[C@H](C(=O)N[C@H]2Cc3nc(ns3)-c3ccc4c(c3)c(c(-c3cccnc3[C@H](C)OC)n4CC)CC(C)(C)COC(=O)[C@@H]3CCCN(N3)C2=O)C(C)C)C1 (atropisomer, axis not shown) [Example A202] | 1000 to 10000 | > 10000 | 1000 to 10000 | 10 to 100 | > 10000 nM | 1000 to 10000 nM | 1000 to 10000 nM | 1000 to 10000 nM | > 10000 nM | > 10000 nM | > 10000 nM | 1000 to 10000 | 
3 | C=CC(=O)N1CC[C@H](C(=O)N(C)[C@H](C(=O)N[C@H]2Cc3csc(n3)-c3ccc4c(c3)c(c(-c3cccnc3[C@H](C)OC)n4CC)CC(C)(C)COC(=O)[C@@H]3CCCN(N3)C2=O)C(C)C)C1 (atropisomer, axis not shown) [Example A330] | 100 to 1000 | 1000 to 10000 | 1000 to 10000 | 10 to 100 | 1000 to 10000 nM | 1000 to 10000 nM | 100 to 1000 nM | 100 to 1000 nM | 1000 to 10000 nM | 1000 to 10000 nM | 1000 to 10000 nM | 100 to 1000 | 

Continued, values first:

Row | IC50 [1] [nM] | IC50 [2] [nM] | IC50 [3] [nM] | IC50 ([4]; Homo sapiens, NCI-H358, 120 h) [nM] | IC50 [5] | IC50 [6] | IC50 [7] | IC50 [8] | IC50 [9] | IC50 [10] | IC50 [11] | IC50 [12] [nM] | IC50 [4] [nM] | SMILES
4 | 10 to 100 | 100 to 1000 | 100 to 1000 |  | 100 to 1000 nM | 100 to 1000 nM | 10 to 100 nM | 10 to 100 nM | 100 to 1000 nM | 1000 to 10000 nM | 100 to 1000 nM | 100 to 1000 | 10 to 100 | C=CC(=O)N1CC[C@H](C(=O)N(C)[C@H](C(=O)N[C@H]2Cc3cc(O)cc(c3)-c3ccc4c(c3)c(c(-c3cccnc3[C@@H](OC)C3CC3)n4CC)CC(C)(C)COC(=O)[C@@H]3CCCN(N3)C2=O)C(C)C)C1 (atropisomer, axis not shown) [Example A207]
5 | 10 to 100 | 100 to 1000 | 100 to 1000 | 10 to 100 | 10 to 100 nM and 100 to 1000 nM | 100 to 1000 nM | 10 to 100 nM and 100 to 1000 nM | 10 to 100 nM and 100 to 1000 nM | 100 to 1000 nM | 1000 to 10000 nM | 100 to 1000 nM | 100 to 1000 |  | C=CC(=O)N1CC[C@H](C(=O)N(C)[C@H](C(=O)N[C@H]2Cc3cc(O)cc(c3)-c3ccc4c(c3)c(c(-c3cccnc3[C@@H]3CCCO3)n4CC)CC(C)(C)COC(=O)[C@@H]3CCCN(N3)C2=O)C(C)C)C1 (atropisomer, axis not shown) [Example A281]
6 | 100 to 1000 | 100 to 1000 | 1000 to 10000 | 100 to 1000 | 100 to 1000 nM | 1000 to 10000 nM | 100 to 1000 nM | 100 to 1000 nM | 1000 to 10000 nM | 1000 to 10000 nM | 1000 to 10000 nM | 100 to 1000 |  | C=CC(=O)N1CC[C@H](C(=O)N(C)[C@H](C(=O)N[C@H]2Cc3nc(n(C)n3)-c3ccc4c(c3)c(c(-c3cccnc3[C@H](C)OC)n4CC)CC(C)(C)COC(=O)[C@@H]3CCCN(N3)C2=O)C(C)C)C1 (atropisomer, axis not shown) [Example A314]
